# Data published in the NIST ThermoML archive (doi:10.1016/j.fluid.2018.10.006).
# Numbers after ± are expanded uncertainties.
# Conditions: Fluid (supercritical or subcritical phases), Coaxial cylinder method
smiles,measurement,setting,value
CCCCCC [hexane],thermal conductivity,"513.09 K, 8500 kPa",0.07722 ± 0.0036 W/m/K
same,thermal conductivity,"513.09 K, 8790 kPa",0.07758 ± 0.0036 W/m/K
same,thermal conductivity,"513.09 K, 8830 kPa",0.07762 ± 0.0036 W/m/K
same,thermal conductivity,"513.09 K, 8882 kPa",0.07769 ± 0.0036 W/m/K
same,thermal conductivity,"513.09 K, 9275 kPa",0.07816 ± 0.0036 W/m/K
same,thermal conductivity,"513.09 K, 9297 kPa",0.07816 ± 0.0036 W/m/K
same,thermal conductivity,"513.09 K, 9300 kPa",0.07816 ± 0.0036 W/m/K
same,thermal conductivity,"513.09 K, 9344 kPa",0.0782 ± 0.0036 W/m/K
same,thermal conductivity,"513.09 K, 9367 kPa",0.07824 ± 0.0036 W/m/K
same,thermal conductivity,"513.09 K, 9700 kPa",0.07864 ± 0.0036 W/m/K
same,thermal conductivity,"513.09 K, 9900 kPa",0.07883 ± 0.0037 W/m/K
same,thermal conductivity,"513.09 K, 10000 kPa",0.07894 ± 0.0037 W/m/K
same,thermal conductivity,"515.56 K, 676 kPa",0.03834 ± 0.002 W/m/K
same,thermal conductivity,"515.56 K, 700 kPa",0.03843 ± 0.002 W/m/K
same,thermal conductivity,"515.56 K, 900 kPa",0.03853 ± 0.002 W/m/K
same,thermal conductivity,"515.56 K, 1220 kPa",0.039 ± 0.002 W/m/K
same,thermal conductivity,"515.56 K, 1221 kPa",0.039 ± 0.002 W/m/K
same,thermal conductivity,"515.56 K, 1672 kPa",0.04008 ± 0.0021 W/m/K
same,thermal conductivity,"515.56 K, 1786 kPa",0.04038 ± 0.0021 W/m/K
same,thermal conductivity,"515.56 K, 1822 kPa",0.04059 ± 0.0021 W/m/K
same,thermal conductivity,"515.56 K, 2209 kPa",0.0423 ± 0.0021 W/m/K
same,thermal conductivity,"515.56 K, 2287 kPa",0.04275 ± 0.0022 W/m/K
same,thermal conductivity,"515.56 K, 2404 kPa",0.04344 ± 0.0022 W/m/K
same,thermal conductivity,"515.56 K, 2503 kPa",0.04392 ± 0.0022 W/m/K
same,thermal conductivity,"515.56 K, 2607 kPa",0.04465 ± 0.0022 W/m/K
same,thermal conductivity,"515.56 K, 2688 kPa",0.04553 ± 0.0023 W/m/K
same,thermal conductivity,"515.56 K, 2751 kPa",0.04606 ± 0.0023 W/m/K
same,thermal conductivity,"515.56 K, 2811 kPa",0.04699 ± 0.0023 W/m/K
same,thermal conductivity,"515.56 K, 2856 kPa",0.04713 ± 0.0023 W/m/K
same,thermal conductivity,"515.56 K, 2919 kPa",0.04712 ± 0.0023 W/m/K
same,thermal conductivity,"515.56 K, 2953 kPa",0.04782 ± 0.0024 W/m/K
same,thermal conductivity,"515.56 K, 2989 kPa",0.04928 ± 0.0024 W/m/K
same,thermal conductivity,"515.56 K, 3019 kPa",0.05004 ± 0.0024 W/m/K
same,thermal conductivity,"515.56 K, 3062 kPa",0.05082 ± 0.0025 W/m/K
same,thermal conductivity,"515.56 K, 3072 kPa",0.05082 ± 0.0025 W/m/K
same,thermal conductivity,"515.56 K, 3083 kPa",0.05163 ± 0.0025 W/m/K
same,thermal conductivity,"515.56 K, 3103 kPa",0.05247 ± 0.0026 W/m/K
same,thermal conductivity,"515.56 K, 3114 kPa",0.05247 ± 0.0026 W/m/K
same,thermal conductivity,"515.56 K, 3122 kPa",0.05247 ± 0.0026 W/m/K
same,thermal conductivity,"515.56 K, 3140 kPa",0.05247 ± 0.0026 W/m/K
same,thermal conductivity,"515.56 K, 3153 kPa",0.05333 ± 0.0026 W/m/K
same,thermal conductivity,"515.56 K, 3164 kPa",0.05333 ± 0.0026 W/m/K
same,thermal conductivity,"515.56 K, 3174 kPa",0.05422 ± 0.0026 W/m/K
same,thermal conductivity,"515.56 K, 3180 kPa",0.05422 ± 0.0026 W/m/K
same,thermal conductivity,"515.56 K, 3193 kPa",0.05609 ± 0.0027 W/m/K
same,thermal conductivity,"515.56 K, 3201 kPa",0.05609 ± 0.0027 W/m/K
same,thermal conductivity,"515.56 K, 3209 kPa",0.05609 ± 0.0027 W/m/K
same,thermal conductivity,"515.56 K, 3220 kPa",0.05609 ± 0.0027 W/m/K
same,thermal conductivity,"515.56 K, 3230 kPa",0.05808 ± 0.0028 W/m/K
same,thermal conductivity,"515.56 K, 3235 kPa",0.05808 ± 0.0028 W/m/K
same,thermal conductivity,"515.56 K, 3243 kPa",0.05808 ± 0.0028 W/m/K
same,thermal conductivity,"515.56 K, 3249 kPa",0.05808 ± 0.0028 W/m/K
same,thermal conductivity,"515.56 K, 3257 kPa",0.06022 ± 0.0029 W/m/K
same,thermal conductivity,"515.56 K, 3265 kPa",0.06022 ± 0.0029 W/m/K
same,thermal conductivity,"515.56 K, 3270 kPa",0.06022 ± 0.0029 W/m/K
same,thermal conductivity,"515.56 K, 3275 kPa",0.06022 ± 0.0029 W/m/K
same,thermal conductivity,"515.56 K, 3283 kPa",0.06205 ± 0.0029 W/m/K
same,thermal conductivity,"515.56 K, 3293 kPa",0.06205 ± 0.0029 W/m/K
same,thermal conductivity,"515.56 K, 3301 kPa",0.06374 ± 0.003 W/m/K
same,thermal conductivity,"515.56 K, 3309 kPa",0.06474 ± 0.0031 W/m/K
same,thermal conductivity,"515.56 K, 3316 kPa",0.065 ± 0.0031 W/m/K
same,thermal conductivity,"515.56 K, 3322 kPa",0.06539 ± 0.0031 W/m/K
same,thermal conductivity,"515.56 K, 3329 kPa",0.06578 ± 0.0031 W/m/K
same,thermal conductivity,"515.56 K, 3334 kPa",0.06604 ± 0.0031 W/m/K
same,thermal conductivity,"515.56 K, 3339 kPa",0.06631 ± 0.0031 W/m/K
same,thermal conductivity,"515.56 K, 3342 kPa",0.06658 ± 0.0031 W/m/K
same,thermal conductivity,"515.56 K, 3347 kPa",0.06685 ± 0.0032 W/m/K
same,thermal conductivity,"515.56 K, 3350 kPa",0.06698 ± 0.0032 W/m/K
same,thermal conductivity,"515.56 K, 3352 kPa",0.06712 ± 0.0032 W/m/K
same,thermal conductivity,"515.56 K, 3357 kPa",0.06737 ± 0.0032 W/m/K
same,thermal conductivity,"515.56 K, 3360 kPa",0.06751 ± 0.0032 W/m/K
same,thermal conductivity,"515.56 K, 3362 kPa",0.06759 ± 0.0032 W/m/K
same,thermal conductivity,"515.56 K, 3368 kPa",0.06795 ± 0.0032 W/m/K
same,thermal conductivity,"515.56 K, 3373 kPa",0.06823 ± 0.0032 W/m/K
same,thermal conductivity,"515.56 K, 3386 kPa",0.06866 ± 0.0032 W/m/K
same,thermal conductivity,"515.56 K, 3394 kPa",0.06909 ± 0.0032 W/m/K
same,thermal conductivity,"515.56 K, 3426 kPa",0.06997 ± 0.0033 W/m/K
same,thermal conductivity,"515.56 K, 3453 kPa",0.06911 ± 0.0032 W/m/K
same,thermal conductivity,"515.56 K, 3462 kPa",0.06911 ± 0.0032 W/m/K
same,thermal conductivity,"515.56 K, 3482 kPa",0.06911 ± 0.0032 W/m/K
same,thermal conductivity,"515.56 K, 3490 kPa",0.06911 ± 0.0032 W/m/K
same,thermal conductivity,"515.56 K, 3499 kPa",0.06911 ± 0.0032 W/m/K
